Results taken from patent US12570704B2, “Functionally modified maytansinoids and compositions and methods of use thereof” (University of Georgia Research Foundation, Inc., priority 2019, dated 2026).

Legend:
[1] = NO release in solution with and without 6 Gy X-ray irradiation (Greiss assay); type: physicochemical; details: for NO release: Greiss assay
Text: FIGS. 1A and 1B are schemes illustrating how DM1-NO encapsulated PLGA-b-PEG nanoparticles (DM1-NO-NPs) can accumulate in tumors through the EPR effect. In the presence of radiation and/or reduced pH in endosomes/lysosomes, the S—N bond was broken, releasing DM1 and NO. DM1 inhibits microtubule assembly, arresting cells at the more radiosensitive G2/M phase. Meanwhile, NO can react with ROS to form radicals such as peroxynitrites, causing DNA and lipid damages. The combined effects enhance the efficacy of RT. […] Quantification was based on Greiss assay. PBS, cell culture medium (RPBI-1640), DM1, and DM1-NPs were tested as controls. FIG. 1D is a histogram showing the results of DLS analysis of DM1-NO-NPs in water. FIG. 1E is a plot showing the zeta potential of DM1-NO-NPs in water. FIG. 1F is a bar graph illustrating the stability of DM1-NO under ambient conditions. After synthesis, dry product of DM1-NO was kept at room temperature and the total amount of remaining NO was quantified using Griess assay on Day 0, 7, 14, and 21. FIG. 1G is plot illustrating the stability of DM1-NO in solutions. DM1-NO (20.09 μmol) was dissolved in PBS of different pH (5.5, 6.5, and 7.4). Time-dependent NO release was measured on a Sievers NOA 280i system, which assesses NO based on gas phase chemiluminescent reaction between NO and ozone. FIG. 1H is a line graph showing release profiles for DM1-NO-NPs, tested in PBS of different pH at 37° C. by Greiss assays. FIG. 1I is a histogram showing the results of DLS analysis of DM1-NPs. FIG. 1J is a plot showing the zeta potential of DM1-NPs. FIG. 1K is a series of representative images of clonogenic assays. H1299 cells were treated with 20 nM of DM1 and DM1-NO for 12 h, followed −X-ray irradiation (6 Gy). […]
NO concentration was assessed to determine the amount of DM1-NO prodrug loaded into the DM1-NO-NPs. […] Therefore, to quantify the overall NO amount, the total nitrite (NO2-) and nitrate (NO3-) concentrations in a NP solution cells) were measured using Nitrate/Nitrite Colorimetric assay (Cayman Chemical) by following the vendor's protocol. […]

H1299 cells [2] = assay: MTT cell viability assay, 72 h, without RT; type: cell-based, human; details: Homo sapiens, NCI-H1299
Description: The viability of the H1299 cells after different treatments was measured by (4,5-dimethythiazon-2-yl)-2,5-diphenyl tetrazolium bromide (MTT) assay using an Infinite M200 microplate reader (BioTek's Synergy™ Mx, USA). Around 3×10^3 cells per well were seeded into a 96-well plate and cultured overnight until the cells fully adhered to the bottom of the plate. The cells were treated with different treatment groups, including free drugs (DM1 and DM1-NO), and drug loaded nanoparticles (DM1-NPs and DM1-NO-NPs) for 72 h. […] After that MTT reagent (in 20 μL PBS, 5 mg/mL) was added to each well. The cells were further incubated for 4 h at 37° C. The medium in each well was then removed and replaced by 100 μL DMSO. The plate was gently shake for 5 min (instrument setup) to dissolve the formazan crystals, and the absorbance at 570 nm was recorded by a microplate reader. Each experiment condition was run three times and the data were shown as the mean value plus a standard deviation (±SD).

H1299 cells [3] = assay: Clonogenic assay with X-ray irradiation, linear-quadratic model; type: cell-based, human
Description: Around 3×10^5 of H1299 cells were plated in a series of 25 mm petri dishes in 5 mL of complete RMPI-1640 medium, and the cells were incubated for 24 h at 37° C. Once the cells were completely adhered to the bottom of the plate, the media was replaced with fresh RPMI-1640 containing DM1 or DM1-NO with a final concentration of 20 nM. After another 12 h of incubation, the cell cultures were irradiated by X-rays (320 kV) of different doses Immediately following the X-ray irradiation, the cell monolayers were trypsinized using 0.05% Trypsin/EDTA (Gibco, Life Technologies, USA). Single cells were collected and plated onto a 25 mm petri dish in 5 mL complete media (FIG. 1K). Each dish was then incubated for 21 days to allow colonies to form. After that, the media was removed and 0.5% crystal violet in 70% methanol was used to fixed and stain the existing colonies. The plates were sufficiently and carefully rinsed, and were dried at room temperature. Once dried, the colonies were counted manually under a microscope. When observed under the microscope, colonies of […] were said to be surviving colonies. The survival rate of these colonies was normalized to the plating efficiency of the untreated control cells. The mean and standard deviation of surviving colonies in each treatment group was calculated.
The potential of DM1-NO as a radiosensitizer was assessed by clonogenic assays. Briefly, DM1 or DM1-NO was incubated with H1299 cells, the cells were irradiated with X-rays (0-10 Gy), and the resulting cells were seeded onto a petri dish (FIG. 1K). Colonies consisting more than 50 cells after 3 weeks were counted, and the data fit to a linear-quadratic model (Table 3).

H1299 cells [4] = assay: Superoxide dismutase (SOD) assay, cytosolic and mitochondrial; type: cell-based, human; details: +RT (6 Gy), 20 nM, compared to DM1+RT
Description: Around 3×10^4 cells per well were seeded into each well of a six-well plate and cultured overnight. The cells treated with free drug (DM1 and DM1-NO), and drug loaded nanoparticles (DM1-NPs and DM1-NO-NPs) were given the same concentration of drug (20 nM) and irradiated with 6 Gy of radiation. The plates were then incubated for 24 h. After the treatment, the cells were rinsed with PBS, and the cell pellets were collected using a cell scraper. Cells were homogenized using a sonicator in ice-cold 20 mM 4-(2-hydroxyethyl)-1-piperazineethanesulfonic acid (HEPS) buffer (pH 7.2, containing 1 mM of ethylene glycol-bis(β-aminoethyl ether)-N,N,N′,N′-tetraacetic acid, also known as EGTA; Millipore Sigma, USA), […] of mannitol, and 70 mM sucrose. Following homogenization, a pellet was formed by centrifugation at 15,000×g for 15 minutes at 4° C. The supernatant was collected, and an assay was immediately performed to assess cytosolic SOD levels by comparing to a standard curve. To measure mitochondrial SOD levels, the pellet was resuspended in ice-cold PBS, and the sample was measured accordingly.

With `COc1cc2cc(c1Cl)N(C)C(=O)C[C@@H](OC(=O)[C@H](C)N(C)C(=O)CCSN=O)[C@]1(C)OC1[C@H](C)[C@@H]1C[C@@](O)(NC(=O)O1)[C@H](OC)/C=C\C=C(/C)C2` (stereo partly shown) [DM1-NO] the “increase of NO release” value ([1]; 6 Gy X-ray irradiation applied to solution) was 5.14 fold, the NO release ([1]; before 6 Gy X-ray irradiation) was 3.68 µM and the NO release ([1]; in the presence of 6 Gy X-ray irradiation) was 18.88 µM. For the same molecule, the IC50 (H1299 cells [2]) was 25.9 nM, the “D10 (radiation dose at 10% fractional survival)” value (H1299 cells [3]; 20 nM, 12 h, X-rays 0-10 Gy) was 4.39 Gy and the “α (linear quadratic model best fit value)” value (H1299 cells [3]; 20 nM, 12 h, X-rays 0-10 Gy) was 0.0765. The “β (linear quadratic model best fit value)” value (H1299 cells [3]; 20 nM, 12 h, X-rays 0-10 Gy) was 0.0051, the “dose modifying factor at 10% factional survival (DMF10)” value (H1299 cells [3]; relative to RT alone) was 1.23 and the “increase of cytosol SOD activity” value (H1299 cells [4]) was 70.08%. The “increase of mitochondrial SOD activity” value (H1299 cells [4]) was 24.36%.
